From publication PMC4512978, “Synthesis and evaluation in rats of homologous series of [^18F]-labeled dopamine D2/3 receptor agonists based on the 2-aminomethylchroman scaffold as potential PET tracers” (EJNMMI Research, 2015)

System: D2/3R
Experiment: Kinetic analysis of PET data (1TCM, 2TCM, Logan, SRTM);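 for 2TCM BPND change relative to control: Raclopride 1 mg/kg intravenous pretreatment versus saline controls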;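 for SRTM BPND change relative to control: Raclopride 1 mg/kg intravenous pretreatment versus saline controls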
Format: in vivo, Sprague-Dawley rats
Parameters: key to SRTM BPND / 1TCM BPND / 2TCM BPND (VT-based): BPND = VT(target)/VT(cerebellum) − 1 (or SRTM, cerebellum reference); SRTM BPND change relative to control / 1TCM BPND change relative to control / 2TCM BPND change relative to control / Logan BPND change relative to control: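 Raclopride 1 mg/kg intravenous pretreatment versus saline controls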; 1TCM VT / 2TCM VT: unit not given here
Experimental: Kinetic analysis is described using the nomenclature proposed by Innis et al.. ROI TACs of [^18F]FEt-AMC13 were analyzed with one-tissue and two-tissue compartmental models of reversible binding (1TCM and 2TCM, respectively) to obtain individual rate constants. From these, the regional distribution volumes (VT) were calculated and compared to those obtained with Logan graphical analysis. Binding potentials (BPND) were calculated from the distribution ratios as VT (target) / VT (cerebellum) – 1, or estimated with the simplified reference tissue model (SRTM) using the cerebellum as reference region.
Metabolite-corrected plasma-derived arterial input function and whole blood time-activity curve were used for Logan, 1TCM, and 2TCM analyses. Fractional cerebral blood volume was set to 3.6 % [27]. For one rat in the raclopride-treated group, no input curves could be obtained; therefore, its PET data were only analyzed with SRTM.
Degree of D2/3R-specific binding of the tracers was characterized by BPND (as given above) or the specific binding ratio (SBR) given as target region activity/cerebellar activity - 1. Both were calculated under control conditions and in response to the raclopride challenge.

[1] = Brainstem, raclopride, listed as [18F]FEt-AMC13
[2] = Cortex, raclopride, listed as [18F]FEt-AMC13
[3] = Hippocampus, raclopride, listed as [18F]FEt-AMC13
[4] = Hypothalamus, control rat A, SD could not be estimated

## Oc1ccc2c(c1)O[C@@H](CNCc1ccc(OCC[18F])cc1)CC2 [[^18F]FEt-AMC13]
1 mg/kg raclopride, depending on the kinetic model
  fall of striatal BPND: 18–27%
Brainstem, control
  1TCM BPND: 0.21±0.03
  1TCM VT: 5.67±0.33
  2TCM BPND (VT-based): 0.22 ± 0.02
  2TCM VT: 6.17±0.52
  Logan BPND: 0.21±0.02
  Logan VT: 6.12±0.57
  SRTM BPND: 0.18 ± 0.04
Brainstem, control rat A
  1TCM K1: 0.63 ± 0.04 mL/g/min
  1TCM k2: 0.10 ± 0.02 min⁻¹
  2TCM K1: 2.03 ± 0.40 mL/g/min
  2TCM k2: 3.53 ± 1.32 min⁻¹
  2TCM k3: 1.05 ± 0.19 min⁻¹
  2TCM k4: 0.10 ± 0.01 min⁻¹
Brainstem, control rat B
  1TCM K1: 0.60 ± 0.03 mL/g/min
  1TCM k2: 0.11 ± 0.01 min⁻¹
  2TCM K1: 0.96 ± 0.11 mL/g/min
  2TCM k2: 0.89 ± 0.30 min⁻¹
  2TCM k3: 0.72 ± 0.83 min⁻¹
  2TCM k4: 0.15 ± 1.20 min⁻¹
Brainstem, control rat C
  1TCM K1: 0.68 ± 0.02 mL/g/min
  1TCM k2: 0.12 ± 0.01 min⁻¹
  2TCM K1: 1.11 ± 0.22 mL/g/min
  2TCM k2: 1.19 ± 0.59 min⁻¹
  2TCM k3: 1.10 ± 1.86 min⁻¹
  2TCM k4: 0.21 ± 2.66 min⁻¹
Brainstem, control rat D
  1TCM K1: 0.71 ± 0.03 mL/g/min
  1TCM k2: 0.13 ± 0.01 min⁻¹
  2TCM K1: 4.75 ± 5.87 mL/g/min
  2TCM k2: 19.6 ± 19.9 min⁻¹
  2TCM k3: 2.79 ± 15.04 min⁻¹
  2TCM k4: 0.12 ± 37.81 min⁻¹
Brainstem, raclopride
  1TCM BPND: 0.13±0.03
  1TCM BPND change relative to control: -41%
  1TCM VT: 4.99±0.56
  2TCM BPND (VT-based): 0.10 ± 0.02
  2TCM BPND change relative to control: −53%
  2TCM VT: 5.46±0.36
  Logan BPND: 0.11±0.02
  Logan BPND change relative to control: -47%
  Logan VT: 5.53±0.26
  SRTM BPND: 0.07 ± 0.03
  SRTM BPND change relative to control: −60%
[1]
  2TCM BPND (VT-based): 0.10±0.02
  2TCM BPND change relative to control: -53%
  SRTM BPND: 0.07±0.03
  SRTM BPND change relative to control: –60%
Cerebellum, control
  1TCM VT: 4.68±0.34
  2TCM VT: 5.08±0.49
  Logan VT: 5.06±0.53
Cerebellum, control rat A
  1TCM K1: 0.57 ± 0.04 mL/g/min
  1TCM k2: 0.11 ± 0.02 min⁻¹
  2TCM K1: 2.10 ± 0.32 mL/g/min
  2TCM k2: 4.90 ± 1.30 min⁻¹
  2TCM k3: 1.23 ± 0.13 min⁻¹
  2TCM k4: 0.10 ± 0.005 min⁻¹
Cerebellum, control rat B
  1TCM K1: 0.61 ± 0.02 mL/g/min
  1TCM k2: 0.13 ± 0.01 min⁻¹
  2TCM K1: 0.81 ± 0.05 mL/g/min
  2TCM k2: 0.53 ± 0.24 min⁻¹
  2TCM k3: 0.46 ± 0.55 min⁻¹
  2TCM k4: 0.20 ± 0.71 min⁻¹
Cerebellum, control rat C
  1TCM K1: 0.62 ± 0.01 mL/g/min
  1TCM k2: 0.13 ± 0.01 min⁻¹
  2TCM K1: 0.86 ± 0.21 mL/g/min
  2TCM k2: 1.13 ± 1.45 min⁻¹
  2TCM k3: 1.84 ± 1.78 min⁻¹
  2TCM k4: 0.34 ± 0.12 min⁻¹
Cerebellum, control rat D
  1TCM K1: 0.68 ± 0.03 mL/g/min
  1TCM k2: 0.16 ± 0.02 min⁻¹
  2TCM K1: 48.7 ± 819.7 mL/g/min
  2TCM k2: 298 ± 5152 min⁻¹
  2TCM k3: 3.55 ± 1.05 min⁻¹
  2TCM k4: 0.13 ± 0.03 min⁻¹
Cerebellum, raclopride
  1TCM VT: 4.43±0.40
  2TCM VT: 4.96±0.44
  Logan VT: 4.99±0.30
Cortex, control
  1TCM BPND: 0.18±0.05
  1TCM VT: 5.53±0.38
  2TCM BPND (VT-based): 0.13 ± 0.04
  2TCM VT: 5.75±0.45
  Logan BPND: 0.13±0.03
  Logan VT: 5.69±0.49
  SRTM BPND: 0.11 ± 0.03
Cortex, control rat A
  1TCM K1: 0.37 ± 0.02 mL/g/min
  1TCM k2: 0.06 ± 0.01 min⁻¹
  2TCM K1: 1.68 ± 0.46 mL/g/min
  2TCM k2: 7.83 ± 1.43 min⁻¹
  2TCM k3: 1.84 ± 0.62 min⁻¹
  2TCM k4: 0.06 ± 4.47 min⁻¹
Cortex, control rat B
  1TCM K1: 0.47 ± 0.02 mL/g/min
  1TCM k2: 0.09 ± 0.01 min⁻¹
  2TCM K1: 0.66 ± 0.04 mL/g/min
  2TCM k2: 0.64 ± 0.21 min⁻¹
  2TCM k3: 0.72 ± 0.24 min⁻¹
  2TCM k4: 0.16 ± 0.02 min⁻¹
Cortex, control rat C
  1TCM K1: 0.41 ± 0.01 mL/g/min
  1TCM k2: 0.07 ± 0.002 min⁻¹
  2TCM K1: 0.43 ± 0.12 mL/g/min
  2TCM k2: 0.19 ± 1.58 min⁻¹
  2TCM k3: 1.50 ± 19.49 min⁻¹
  2TCM k4: 1.00 ± 1.64 min⁻¹
Cortex, control rat D
  1TCM K1: 0.47 ± 0.02 mL/g/min
  1TCM k2: 0.09 ± 0.01 min⁻¹
  2TCM K1: 1.46 ± 0.45 mL/g/min
  2TCM k2: 6.65 ± 0.77 min⁻¹
  2TCM k3: 2.62 ± 1.18 min⁻¹
  2TCM k4: 0.11 ± 6.33 min⁻¹
Cortex, raclopride
  1TCM BPND: 0.17±0.05
  1TCM BPND change relative to control: -9%
  1TCM VT: 5.17±0.60
  2TCM BPND (VT-based): 0.10 ± 0.02
  2TCM BPND change relative to control: −27%
  2TCM VT: 5.45±0.52
  Logan BPND: 0.09±0.03
  Logan BPND change relative to control: -32%
  Logan VT: 5.42±0.44
  SRTM BPND: 0.08 ± 0.02
  SRTM BPND change relative to control: −24%
[2]
  2TCM BPND (VT-based): 0.10±0.02
  2TCM BPND change relative to control: -27%
  SRTM BPND: 0.08±0.02
  SRTM BPND change relative to control: –24%
Hippocampus, control
  1TCM BPND: 0.35±0.11
  1TCM VT: 6.34±0.71
  2TCM BPND (VT-based): 0.30 ± 0.07
  2TCM VT: 6.62±0.86
  Logan BPND: 0.28±0.04
  Logan VT: 6.49±0.88
  SRTM BPND: 0.26 ± 0.04
Hippocampus, control rat A
  1TCM K1: 0.41 ± 0.02 mL/g/min
  1TCM k2: 0.06 ± 0.01 min⁻¹
  2TCM K1: 2.21 ± 1.25 mL/g/min
  2TCM k2: 8.56 ± 3.62 min⁻¹
  2TCM k3: 1.60 ± 2.24 min⁻¹
  2TCM k4: 0.05 ± 8.88 min⁻¹
Hippocampus, control rat B
  1TCM K1: 0.51 ± 0.02 mL/g/min
  1TCM k2: 0.08 ± 0.01 min⁻¹
  2TCM K1: 0.71 ± 0.07 mL/g/min
  2TCM k2: 0.50 ± 0.23 min⁻¹
  2TCM k3: 0.50 ± 0.27 min⁻¹
  2TCM k4: 0.14 ± 0.03 min⁻¹
Hippocampus, control rat C
  1TCM K1: 0.46 ± 0.01 mL/g/min
  1TCM k2: 0.08 ± 0.004 min⁻¹
  2TCM K1: 0.60 ± 0.12 mL/g/min
  2TCM k2: 0.57 ± 0.77 min⁻¹
  2TCM k3: 1.17 ± 1.34 min⁻¹
  2TCM k4: 0.24 ± 0.09 min⁻¹
Hippocampus, control rat D
  1TCM K1: 0.48 ± 0.02 mL/g/min
  1TCM k2: 0.08 ± 0.01 min⁻¹
  2TCM K1: 101 ± 14615 mL/g/min
  2TCM k2: 1246 ± 181990 min⁻¹
  2TCM k3: 5.49 ± 4.23 min⁻¹
  2TCM k4: 0.07 ± 0.05 min⁻¹
Hippocampus, raclopride
  1TCM BPND: 0.33±0.09
  1TCM BPND change relative to control: -8%
  1TCM VT: 5.88±0.56
  2TCM BPND (VT-based): 0.26 ± 0.06
  2TCM BPND change relative to control: −13%
  2TCM VT: 6.27±0.63
  Logan BPND: 0.25±0.05
  Logan BPND change relative to control: -10%
  Logan VT: 6.25±0.56
  SRTM BPND: 0.23 ± 0.05
  SRTM BPND change relative to control: −13%
[3]
  2TCM BPND (VT-based): 0.26±0.06
  2TCM BPND change relative to control: -13%
  SRTM BPND: 0.23±0.05
  SRTM BPND change relative to control: –13%
Hypothalamus, control
  1TCM BPND: 0.25±0.04
  1TCM VT: 5.86±0.60
  2TCM BPND (VT-based): 0.22 ± 0.03
  2TCM VT: 6.20±0.55
  Logan BPND: 0.21±0.04
  Logan VT: 6.10±0.44
  SRTM BPND: 0.21 ± 0.03
Hypothalamus, control rat A
  1TCM K1: 0.40 ± 0.03 mL/g/min
  1TCM k2: 0.06 ± 0.01 min⁻¹
[4]
  2TCM K1: 273 mL/g/min
  2TCM k2: 1355 min⁻¹
  2TCM k3: 1.65 min⁻¹
  2TCM k4: 0.05 min⁻¹
Hypothalamus, control rat B
  1TCM K1: 0.53 ± 0.03 mL/g/min
  1TCM k2: 0.09 ± 0.01 min⁻¹
  2TCM K1: 1.17 ± 0.88 mL/g/min
  2TCM k2: 3.45 ± 1.30 min⁻¹
  2TCM k3: 2.22 ± 6.73 min⁻¹
  2TCM k4: 0.13 ± 14.19 min⁻¹
Hypothalamus, control rat C
  1TCM K1: 0.50 ± 0.02 mL/g/min
  1TCM k2: 0.08 ± 0.01 min⁻¹
  2TCM K1: 0.64 ± 0.24 mL/g/min
  2TCM k2: 0.63 ± 1.60 min⁻¹
  2TCM k3: 1.37 ± 2.85 min⁻¹
  2TCM k4: 0.27 ± 0.20 min⁻¹
Hypothalamus, control rat D
  1TCM K1: 0.59 ± 0.04 mL/g/min
  1TCM k2: 0.12 ± 0.02 min⁻¹
  2TCM K1: 680 ± 116990 mL/g/min
  2TCM k2: 3105 ± 534810 min⁻¹
  2TCM k3: 2.16 ± 0.48 min⁻¹
